Results as given in ChEMBL document CHEMBL1123818, “Synthesis and biological activity of 5-(2,2-difluorovinyl)-2'-deoxyuridine” (1987).
Values after ≈ are worked out from the molar mass of the structure shown.

Assays:
[1] = Compound was tested for antiviral activity against […] Vassicular stomatitis in primary rabbit kidney cells; assay type: functional; conditions: Oryctolagus cuniculus
[2] = Compound was tested for antitumor activity against HSV-1 TK gene transformed TK deficient FM3A cells; assay type: functional; conditions: Mus musculus
[3] = Compound was tested for antiviral activity against herpes simplex virus( HSV-1-F) strain in primary rabbit kidney cells; assay type: functional; conditions: Oryctolagus cuniculus
[4] = test system: FM3A; experiment: Compound was tested for antitumor activity against FM3A/TK- cells; assay type: functional; conditions: Mus musculus
[5] = test system: FM3A; experiment: Compound was tested for antitumor activity against FM3A/0 mammary carcinoma cells; assay type: functional; conditions: Mus musculus
[6] = Compound was tested for antiviral activity against herpes simplex virus( HSV-2-lyons) strain in primary rabbit kidney cells; assay type: functional; conditions: Oryctolagus cuniculus
[7] = test system: Human alphaherpesvirus 1; experiment: (§1) Compound was tested for antiviral activity against herpes simplex virus (thymidine kinase deficient herpes simplex virus ( HSV-1 (B2006) in primary rabbit kidney cells; assay type: functional
[8] = test system: MOLT-4F; experiment: Compound was tested for antitumor activity against human T-lymphoblast Molt/4F cells; assay type: functional
[9] = Compound was tested for antiviral activity against herpes simplex virus( HSV-1-KOS) strain in primary rabbit kidney cells; assay type: functional; conditions: Oryctolagus cuniculus
[10] = test system: L1210; experiment: Compound was tested for antitumor activity against L1210 cells; assay type: functional; conditions: Mus musculus
[11] = Compound was tested for antiviral activity against herpes simplex virus( HSV-2-G) strain in primary rabbit kidney cells; assay type: functional; conditions: Oryctolagus cuniculus
[12] = test system: Raji; experiment: Compound was tested for antitumor activity against thymidine kinase deficient human B-lymphoblast […] cells; assay type: functional
[13] = Compound was tested for antiviral activity against herpes simplex virus( HSV-1-McIntyre) strain in primary rabbit kidney cells; assay type: functional; conditions: Oryctolagus cuniculus
[14] = test system: Raji; experiment: Compound was tested for antitumor activity against human B-lymphoblast Raji/0 cells; assay type: functional
[15] = Compound was tested for antiviral activity against herpes simplex virus( HSV-2-196 strain in primary rabbit kidney cells; assay type: functional; conditions: Oryctolagus cuniculus
[16] = test system: Human alphaherpesvirus 1; experiment: as §1; assay type: functional, Oryctolagus cuniculus
[17] = organism: Oryctolagus cuniculus; experiment: Compound was tested for antiviral activity against Vaccinia virus in primary rabbit kidney cells; assay type: functional
[18] = Compound was tested for antiviral activity against herpes simplex virus (HSV-1-McIntyre) strain in primary rabbit kidney cells; assay type: functional; conditions: Oryctolagus cuniculus
[19] = test system: Human alphaherpesvirus 1; experiment: Compound was tested for antiviral activity against herpes simplex virus (thymidine kinase deficient herpes simplex virus( HSV-1 (B2006) in primary rabbit kidney cells; assay type: functional, Oryctolagus cuniculus

O=c1[nH]c(=O)n([C@@H]2C[C@H](O)[C@@H](CO)O2)cc1C=C(F)F
MIC50 [1]: > 200 µg/mL | MIC50 [2]: > 100 µg/mL | MIC50 [3]: 20 µg/mL (≈ 68.9 µM) | MIC50 [4]: > 100 µg/mL | MIC50 [5]: > 100 µg/mL | MIC50 [6]: 70 µg/mL (≈ 241 µM) | MIC50 [7]: > 200 µg/mL | MIC50 [8]: > 100 µg/mL | MIC50 [9]: 20 µg/mL (≈ 68.9 µM) | MIC50 [10]: > 100 µg/mL | MIC50 [11]: 150 µg/mL (≈ 517 µM) | MIC50 [12]: > 100 µg/mL | MIC50 [13]: 20 µg/mL (≈ 68.9 µM) | MIC50 [14]: > 100 µg/mL | MIC50 [15]: 100 µg/mL (≈ 345 µM)

O=c1[nH]c(=O)n([C@H]2C[C@H](O)[C@@H](CO)O2)cc1C=C(Br)Br
MIC50 [1]: > 400 µg/mL | MIC50 [2]: 7 µg/mL (≈ 17 µM) | MIC50 [3]: 70 µg/mL (≈ 170 µM) | MIC50 [4]: > 100 µg/mL | MIC50 [16]: > 150 µg/mL | MIC50 [5]: > 100 µg/mL | MIC50 [17]: 100 µg/mL (≈ 243 µM) | MIC50 [6]: 200 µg/mL (≈ 485 µM) | MIC50 [8]: > 100 µg/mL | MIC50 [9]: 20 µg/mL (≈ 48.5 µM) | MIC50 [10]: > 100 µg/mL | MIC50 [11]: 200 µg/mL (≈ 485 µM) | MIC50 [12]: > 100 µg/mL | MIC50 [13]: 20 µg/mL (≈ 48.5 µM) | MIC50 [14]: > 100 µg/mL | MIC50 [15]: 150 µg/mL (≈ 364 µM)

O=c1[nH]c(=O)n([C@H]2C[C@H](O)[C@@H](CO)O2)cc1C=C(F)F
MIC50 [1]: > 200 µg/mL | MIC50 [2]: 0.25 µg/mL (≈ 0.861 µM) | MIC50 [3]: 0.3 µg/mL (≈ 1.03 µM) | MIC50 [4]: > 100 µg/mL | MIC50 [16]: > 200 µg/mL | MIC50 [5]: 55 µg/mL (≈ 190 µM) | MIC50 [17]: 15 µg/mL (≈ 51.7 µM) | MIC50 [6]: 3 µg/mL (≈ 10.3 µM) | MIC50 [8]: 42 µg/mL (≈ 145 µM) | MIC50 [9]: 0.2 µg/mL (≈ 0.689 µM) | MIC50 [10]: 30 µg/mL (≈ 103 µM) | MIC50 [11]: 6 µg/mL (≈ 20.7 µM) | MIC50 [12]: > 100 µg/mL | MIC50 [13]: 0.3 µg/mL (≈ 1.03 µM) | MIC50 [14]: 33 µg/mL (≈ 114 µM) | MIC50 [15]: 10 µg/mL (≈ 34.5 µM)

O=c1[nH]c(=O)n([C@H]2C[C@H](O)[C@@H](CO)O2)cc1I [IDOXURIDINE]
MIC50 [1]: > 200 µg/mL | MIC50 [3]: 0.2 µg/mL (≈ 0.565 µM) | MIC50 [16]: > 200 µg/mL | MIC50 [17]: 0.5 µg/mL (≈ 1.41 µM) | MIC50 [6]: 1.5 µg/mL (≈ 4.24 µM) | MIC50 [9]: 0.15 µg/mL (≈ 0.424 µM) | MIC50 [11]: 1.5 µg/mL (≈ 4.24 µM) | MIC50 [13]: 0.3 µg/mL (≈ 0.847 µM) | MIC50 [15]: 3 µg/mL (≈ 8.47 µM)

Oc1ncc(C=C(F)F)c(O)n1
MIC50 [1]: > 200 µg/mL | MIC50 [2]: > 100 µg/mL | MIC50 [3]: > 200 µg/mL | MIC50 [4]: > 100 µg/mL | MIC50 [5]: > 100 µg/mL | MIC50 [17]: > 200 µg/mL | MIC50 [6]: > 200 µg/mL | MIC50 [8]: > 100 µg/mL | MIC50 [9]: > 200 µg/mL | MIC50 [10]: > 100 µg/mL | MIC50 [11]: > 200 µg/mL | MIC50 [12]: > 100 µg/mL | MIC50 [18]: > 200 µg/mL | MIC50 [14]: > 100 µg/mL | MIC50 [19]: > 200 µg/mL | MIC50 [15]: > 200 µg/mL

O=c1[nH]c(=O)n([C@H]2C[C@H](O)[C@@H](CO)O2)cc1/C=C/Br [BRIVUDINE]
MIC50 [1]: > 200 µg/mL | MIC50 [2]: 0.0004 µg/mL (≈ 0.0012 µM) | MIC50 [3]: 0.02 µg/mL (≈ 0.06 µM) | MIC50 [4]: 0.4 µg/mL (≈ 1.2 µM) | MIC50 [16]: > 200 µg/mL | MIC50 [5]: 13 µg/mL (≈ 39 µM) | MIC50 [17]: 20 µg/mL (≈ 60 µM) | MIC50 [6]: 7 µg/mL (≈ 21 µM) | MIC50 [8]: > 100 µg/mL | MIC50 [9]: 0.02 µg/mL (≈ 0.06 µM) | MIC50 [10]: 31 µg/mL (≈ 93.1 µM) | MIC50 [11]: 2 µg/mL (≈ 6 µM) | MIC50 [12]: 78 µg/mL (≈ 234 µM) | MIC50 [13]: 0.02 µg/mL (≈ 0.06 µM) | MIC50 [14]: 29 µg/mL (≈ 87.1 µM) | MIC50 [15]: 7 µg/mL (≈ 21 µM)
